Source: patent publication US20090232735A1, “USE OF FRUCTOSE-BASED THERAPIES FOR THE TREATMENT OF CANCER” (CEDARS-SINAI MEDICAL CENTER, priority 2005, published 2009)
Entries after “also recorded” stand apart in the source; their conditions may differ.

Tested on: PANC-1 pancreatic cancer cells
Test: PANC-1 pancreatic cancer cell proliferation (MTS assay)
Assay type: cell-based, human
Conditions: oxythiamine 0.5 mM, 72 h, MTS
Description: FIG. 13 depicts higher proliferation rates in pancreatic cancer cells in fructose (5.5 mM) than glucose (5.5 mM) containing medium in accordance with an embodiment of the present invention. PANC-1 cells were pre-incubated in 2 mM glucose, after which they were plated in 5.5 mM fructose or glucose for times between 12-72 h, after which proliferative rates were measured using an MTS assay. Proliferative rates are expressed as the percentage difference between cells grown in 5.5 mM fructose versus 5.5 mM glucose. p<0.01 for times>48 h.
FIG. 14 depicts proliferation rates of pancreatic cells in different fructose or glucose concentrations in accordance with an embodiment of the present invention. PANC-1 cells were plated in a range of fructose or glucose concentrations (5-25 mM) for 72 h, after which proliferative rates were measured using an MTS assay. *, p<0.05 for concentrations between 5-25 mM fructose versus glucose.
FIG. 17 depicts cell proliferation regardless of co-existent glucose concentration in accordance with an embodiment of the present invention. PANC-1 cells were pre-incubated in 2 mM glucose prior to treatment with a range of concentrations (0-15 mM) mixed with a range of fructose concentrations (0-15 mM) for 72 h. PANC-1 cell proliferative rates were then measured using the MTS assay (absorbance in arbitrary units).
FIG. 35 depicts inhibition of pancreatic cancer PANC-1 cell proliferation by incubation with the transketolase inhibitor, oxythiamine (0.5-2 mM) for 72 h in accordance with an embodiment of the present invention. Proliferative rates were measured using the MTS proliferation assay.
Standard media for maintenance cancer cell line culture, including pancreatic cancer cells such as PANC-1 cells contain either low—(5-7 mM), or high—(12-25 mM) glucose concentrations. Clearly, apart from the setting of hyperglycemia, as in patients with diabetes, the glucose concentrations in which pancreatic cancer cells are maintained in vitro are much higher than normal physiological conditions, which range between 2-5 mM glucose. […] Therefore, the inventors first pre-treated the pancreatic cancer cells overnight in standard DMEM medium containing low physiological glucose concentrations (2 mM glucose), and standard 10% fetal bovine serum. The pancreatic cancer cells were then incubated for times between 12, and 96 hours in standard DMEM medium containing 10% fetal bovine serum, and 5.5 mM glucose or 5.5 mM fructose. Proliferative rates were then measured in replicate (minimum of 6) aliquot wells of the pancreatic cancer cells, and the change (expressed as percent increase) in proliferative rates compared between cells grown in glucose, or fructose containing medium.
This first result intrigued the inventors, but given there is little documentation regarding physiological fructose concentrations, the inventors first considered that the “apparent” pro-proliferative effects of fructose were simply a consequence of the highly stylized in vitro experimental conditions, and that if the pancreatic cancer cells were cultured in higher glucose concentrations, this would result in similar proliferative rates to those the inventors observed following culture in 5.5 mM fructose. Therefore, in the next experiments, the inventors compared proliferative rates of the PANC-1 pancreatic cancer cells following culture for 72 h in a range of fructose, and glucose concentrations (2-25 mM). This timepoint was chosen as the inventors had seen maximal pancreatic cancer cell proliferation in 5.5 mM fructose at 72 h. […] While not wishing to be bound by any particular theory, the inventors believe that this latter finding may be because the PANC-1 cells are proliferating at close to maximal capacity by 72 h, once they are exposed to comparatively low fructose concentrations (5 mM). MTS assay was employed to measure pancreatic cancer cell proliferative rates, which utilizes mitochondrial oxidation to quantify cell proliferation. […]

`Cc1ncc(C[n+]2csc(CCO)c2C)c(=O)[nH]1` [oxythiamine, reference compound] was tested, and the “fructose-mediated increase in pancreatic cancer cell proliferation” value (5.5 mM fructose) was “virtually abolished; also recorded: almost completely abrogate” and the “glucose-induced and fructose-induced PANC-1 proliferation” value was “inhibited”.
